From ChEMBL document CHEMBL1145557, “Pyridine amides as potent and selective inhibitors of 11beta-hydroxysteroid dehydrogenase type 1” (Bioorg Med Chem Lett, 2008)

Experiment: Inhibition of human 11-beta HSD in microsomes from HEK293 cells by SPA method
An IC50 of 79 nM was found for `CC1CCN(C(=O)c2cccc(COc3c(Cl)cccc3Cl)n2)CC1` in this work. An IC50 of 7.2 nM was found for `CC1CCN(C(=O)c2cccc(CSc3c(Cl)cccc3Cl)n2)CC1` in this work. An IC50 of 21 nM was found for `O=C(c1cncc(CS(=O)(=O)c2c(Cl)cccc2Cl)c1)N1CCCCCC1` in this work. An IC50 of 2140 nM was found for `O=C(c1cncc(CS(=O)(=O)c2c(Cl)cccc2Cl)c1)N1CCCC1` in this work. An IC50 of 3.6 nM was found for `O=C(c1cccc(-c2ccc(C(F)(F)F)cc2)n1)N1CCCC2CCCCC21` (stereo unspecified) in this work. An IC50 of 4.6 nM was found for `O=C(c1cccc(COc2c(Cl)cccc2Cl)n1)N1CCCC2CCCCC21` (stereo unspecified) in this work. An IC50 of 1.7 nM was found for `CC1(C)C[C@H]2C[C@](C)(CN2C(=O)c2cncc(COc3c(Cl)cccc3Cl)c2)C1` in this work. An IC50 of 1.1 nM was found for `CC1(C)CCCN(C(=O)c2cccc(-c3ccc(OC(F)(F)F)cc3)n2)C1` in this work. An IC50 of 282 nM was found for `CC1CCN(C(=O)c2cccc(Oc3ccccc3Cl)n2)CC1` in this work. An IC50 of 381 nM was found for `CC1CCN(C(=O)c2cccc(Nc3ccccc3Cl)n2)CC1` in this work. An IC50 of 235 nM was found for `CC1CCN(C(=O)c2ccc(CSc3ccc(Cl)cc3)cc2)CC1` in this work. An IC50 of 106 nM was found for `CC1CCN(C(=O)c2ccnc(CS(=O)(=O)c3c(Cl)cccc3Cl)c2)CC1` in this work. An IC50 of 319 nM was found for `CC1CCN(C(=O)c2cc(CS(=O)(=O)c3c(Cl)cccc3Cl)ccn2)CC1` in this work. An IC50 of 2.9 nM was found for `CC1(C)CCCN(C(=O)c2cccc(-c3ccccc3Cl)n2)C1` in this work. An IC50 of 22 nM was found for `CC1CCN(C(=O)c2cncc(CS(=O)(=O)c3c(Cl)cccc3Cl)c2)CC1` in this work. An IC50 of 6.5 nM was found for `CC1(C)CCCN(C(=O)c2cccc(COc3c(Cl)cc(Cl)cc3Cl)n2)C1` in this work. An IC50 of 4.7 nM was found for `O=C(c1cccc(-c2ccccc2-c2ccccc2)n1)N1CCCC2CCCCC21` (stereo unspecified) in this work. An IC50 of 2 nM was found for `O=C(c1cncc(COc2c(Cl)cccc2Cl)c1)N1CCCCC1c1cccnc1` (stereo unspecified) in this work. An IC50 of 2 nM was found for `O=C(c1cccc(-c2ccccc2[N+](=O)[O-])n1)N1CCCC2CCCCC21` (stereo unspecified) in this work. An IC50 of 1.1 nM was found for `CC1(C)CCCN(C(=O)c2cccc(-c3ccc(Cl)cc3)n2)C1` in this work. An IC50 of 218 nM was found for `CC1CCN(C(=O)c2cccc(Sc3ccccc3Cl)n2)CC1` in this work. An IC50 of 2350 nM was found for `NC(=O)C1CCN(C(=O)c2cncc(CS(=O)(=O)c3c(Cl)cccc3Cl)c2)CC1` in this work. An IC50 greater than 10000 nM was found for `O=C(c1cncc(CS(=O)(=O)c2c(Cl)cccc2Cl)c1)N1CCOCC1` in this work. An IC50 of 0.1 nM was found for `Cc1ccc(-c2cccc(C(=O)N3CCCC(C)(C)C3)n2)cc1F` in this work. An IC50 of 220 nM was found for `O=C(c1cncc(CS(=O)(=O)c2c(Cl)cccc2Cl)c1)N1CCCCC1` in this work. An IC50 of 2130 nM was found for `CC1CCN(C(=O)c2ccc(CS(=O)(=O)c3c(Cl)cccc3Cl)cn2)CC1` in this work. An IC50 of 13 nM was found for `CC1CCN(C(=O)c2cccc(CS(=O)(=O)c3c(Cl)cccc3Cl)c2)CC1` in this work. An IC50 of 11 nM was found for `O=C(c1cncc(CS(=O)(=O)c2c(Cl)cccc2Cl)c1)N1CCCCCCC1` in this work. An IC50 of 2.5 nM was found for `O=C(c1cncc(CS(=O)(=O)c2c(Cl)cccc2Cl)c1)N1CCCCCCCC1` in this work. An IC50 of 2050 nM was found for `CC1CCN(C(=O)c2ccc(CS(=O)(=O)c3c(Cl)cccc3Cl)nc2)CC1` in this work. An IC50 of 4670 nM was found for `CC1CCN(C(=O)c2cccc(S(=O)(=O)c3ccccc3Cl)n2)CC1` in this work.
